Laboratory results taken from patent US20090104235A1, “Method for Producing of a Preparation of a Solid Dmso-Containing Silicone Oil Emulsion for the Binding of Reactive Oxygen Compounds in Human and Animal Bodies” (priority 2005, published 2009).

Tests used:
[1] = Case report: morbus Bechterev patient with chronic pain, daily suppository application; format: in vivo, human
Excerpt: […]: morbus Bechterev for over 10 years. Treatment of chronic pain with Celebrex.

[2] = among humans; N. M. Luerry et al. 1984; cited from earlier work
[3] = DMSO application quantity needed for the same effect; comparison with pure DMSO; format: in vivo, human; details: dose of pure DMSO, without silicone emulsion
Experimental: With standard preparations for the treatment of chronic diseases among humans, DMSO can be prescribed in a dose of up to 1 g/kg of body weight. A toxic effect only occurs among humans when over 1 g/kg DMSO is supplied (N. M. Luerry et al. Drug. Intell. Clin. Pharm. 18, 591 [1984]). Due to the silicone emulsion according to the invention, the same effect is achieved among humans with an application quantity of DMSO of 1 mg/kg of body weight. With the silicone emulsion according to the invention, the quantity of DMSO to be applied is therefore reduced to 1/1000th of the application quantity used to date.

SMILES	side effects ([1]; morbus Bechterev patient)	influence on disease progression ([1]; treatment of chronic pain, morbus Bechterev for over 10 years)	dose at which a toxic effect occurs [2]	pain-relieving and inflammation-restricting effect [3]
Cc1ccc(-c2cc(C(F)(F)F)nn2-c2ccc(S(N)(=O)=O)cc2)cc1 [Celebrex]	clearly cause difficulty to the patient	can also not be significantly influenced		
C[S+](C)[O-] [DMSO, dimethylsulphoxide]			over 1 g/kg	does not lead to the high pain-relieving and inflammation-restricting effect
